Test results as given in patent US10435411B2, “Oxime group-containing quinoline compound, N-oxide thereof or salt thereof, agricultural and horticultural insecticide comprising the compound, and method for using the insecticide” (Nihon Nohyaku Co., Ltd., priority 2016, dated 2019).

What was measured:
Laodelphax striatellus = assay: Insecticidal test on Laodelphax striatellus (rice seedling dip); format: in vivo; conditions: 192 h, rice seedlings dipped 30 seconds, 3rd-instar larvae, 8 days after inoculation, read-out: insecticidal efficacy (corrected mortality rate) activity level
Description: Insecticidal Test on Laodelphax striatellus
The oxime group-containing quinoline compounds represented by the general formula (1) of the present invention or salts thereof were separately dispersed in water and diluted to 500 ppm. Rice plant seedlings (variety: Nihonbare) were dipped in the agrochemical dispersions for 30 seconds. After air-dried, each seedling was put into a separate glass test tube and inoculated with ten 3rd-instar larvae of Laodelphax striatellus, and then the glass test tubes were capped with cotton plugs. At 8 days after the inoculation, the numbers of surviving larvae and dead larvae were counted, the corrected mortality rate was calculated according to the formula shown below, and the insecticidal efficacy was evaluated according to the criteria shown below. Corrected mortality rate (%)=100×(Survival rate in a non-treatment plot−Survival rate in a treatment plot)/Survival rate in a non-treatment plot [Math. 2] Criteria A: the corrected mortality rate is 100%. B: the corrected mortality rate is 90 to 99%. C: the corrected mortality rate is 80 to 89%. D: the corrected mortality rate is 50 to 79%.

Plutella xylostella = assay: Insecticidal test on Plutella xylostella (dip of Chinese cabbage seedlings with laid eggs); format: in vivo; conditions: 144 h, seedlings with laid eggs dipped about 30 seconds, 25° C., 6 days after dip treatment, criteria of Test Example 2, read-out: insecticidal efficacy (corrected mortality rate) activity level
Description: Insecticidal Test on Plutella xylostella
Adults of Plutella xylostella were released onto Chinese cabbage seedlings and allowed to lay eggs thereon. At 2 days after the release of the adults, the Chinese cabbage seedlings with laid eggs were dipped for about 30 seconds in agrochemical dispersions diluted to 500 ppm, each of which contained a different kind of oxime group-containing quinoline compound represented by the general formula (1) of the present invention as an active ingredient. After air-dried, the seedlings were kept in a thermostatic chamber at 25° C. At 6 days after the dip treatment, the number of hatched larvae per plot was counted, the mortality rate was calculated according to the formula shown below, and the insecticidal efficacy was evaluated according to the criteria of Test Example 2. This test was conducted in triplicate using 10 adults of Plutella xylostella per plot. Corrected mortality rate (%)=100×(Number of hatched larvae in a non-treatment plot−Number of hatched larvae in a treatment plot)/Number of hatched larvae in a non-treatment plot [Math. 3]

SMILES	mortality at 500 ppm (Laodelphax striatellus)	mortality at 500 ppm (Plutella xylostella)
CCS(=O)(=O)c1cc2cc(/C=N/O)ccc2nc1-c1nc2cc(C(F)(F)F)cnc2n1C [Compound 1-1, (E)-3-(ethylsulfonyl)-2-(3-methyl-6-(trifluoromethyl)-3H-imidazo[4,5-b]pyridin-2-yl)quinoline-6-carbaldehyde oxime]	100%	100%
CCS(=O)(=O)c1cc2cc(/C=N/OCC(F)(F)F)ccc2nc1-c1nc2cc(C(F)(F)F)cnc2n1C [Compound 1-7, (E)-3-(ethylsulfonyl)-2-(3-methyl-6-(trifluoromethyl)-3H-imidazo[4,5-b]pyridin-2-yl)quinoline-6-carbaldehyde O-(2,2,2-trifluoroethyl)oxime]	100%	100%
CCS(=O)(=O)c1cc2ccc(/C=N/OCSC)cc2nc1-c1nc2cc(C(F)(F)F)cnc2n1C [Compound 2-19, 3-(ethylsulfonyl)-2-(3-methyl-6-(trifluoromethyl)-3H-imidazo[4,5-b]pyridin-2-yl)quinoline-7-carbaldehyde O-(methylthiomethyl)oxime]	100%	100%
CCS(=O)(=O)c1cc2ccc(/C=N/OC[S+](C)[O-])cc2nc1-c1nc2cc(C(F)(F)F)cnc2n1C (centres unmarked) [Compound 2-24, 3-(ethylsulfonyl)-2-(3-methyl-6-(trifluoromethyl)-3H-imidazo[4,5-b]pyridin-2-yl)quinoline-7-carbaldehyde O-(methylsulfinylmethyl)oxime]	100%	100%
CCS(=O)(=O)c1cc2ccc(/C=N/OCS(C)(=O)=O)cc2nc1-c1nc2cc(C(F)(F)F)cnc2n1C [Compound 2-25, 3-(ethylsulfonyl)-2-(3-methyl-6-(trifluoromethyl)-3H-imidazo[4,5-b]pyridin-2-yl)quinoline-7-carbaldehyde O-(methylsulfonylmethyl)oxime]	100%	100%
CCS(=O)(=O)c1cc2cc(/C(C)=N/O)ccc2nc1-c1nc2cc(SC(F)(F)F)ccc2o1 [Compound 3-2, 1-(3-(ethylsulfonyl)-2-(5-(trifluoromethylthio)benzo[d]oxazol-2-yl)quinolin-6-yl)ethanone oxime]	100%	100%
CCS(=O)(=O)c1cc2cc(/C(C)=N/OCC(F)(F)F)ccc2nc1-c1nc2cc(SC(F)(F)F)ccc2o1 [Compound 3-8, 1-(3-(ethylsulfonyl)-2-(5-(trifluoromethylthio)benzo[d]oxazol-2-yl)quinolin-6-yl)ethanone O-(2,2,2-trifluoroethyl)oxime]	100%	100%
